Data from patent US20260070917A1, “CYCLIN DEPENDENT KINASE DEGRADERS AND METHODS OF USE THEREOF” (Differentiated Therapeutics Inc, priority 2023, published 2026).
Where two headings read alike, the source gives them in different places.

Assays:
Type in all cases: cell-based
CDK2 = molecular target: T1, CDK2 (Homo sapiens, UniProt P24941); experiment: HiBit Assay Protocol for CDK2 (HIBIT protein quantification, degradation); details: HEK293-CDK2-Hibit cells, compound treatment for 6 hours; for DC50: ABS DC50
T1 construct: host or cells: HEK293-CDK2-Hibit
Procedure, shortened: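 DC50 comes from a fitted curve of remaining CDK2-HiBiT luminescence, referenced to DMSO-treated cells and medium-only wells. HEK293-CDK2-HiBiT cells, plated the previous night, received compounds in a 10-point, 3-fold series for 6 h before lysis with LgBiT-containing Nano-Glo HiBiT reagent.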

CCNE1 = molecular target: T2, CCNE1 (Homo sapiens, UniProt P24864); experiment: HiBit Assay Protocol for CCNE1 (HIBIT protein quantification, degradation); details: HEK293-CCNE1-Hibit cells, compound treatment for 6 hours
T2 construct: host or cells: HEK293-CCNE1-Hibit
T2 sequence (P24864 whole entry): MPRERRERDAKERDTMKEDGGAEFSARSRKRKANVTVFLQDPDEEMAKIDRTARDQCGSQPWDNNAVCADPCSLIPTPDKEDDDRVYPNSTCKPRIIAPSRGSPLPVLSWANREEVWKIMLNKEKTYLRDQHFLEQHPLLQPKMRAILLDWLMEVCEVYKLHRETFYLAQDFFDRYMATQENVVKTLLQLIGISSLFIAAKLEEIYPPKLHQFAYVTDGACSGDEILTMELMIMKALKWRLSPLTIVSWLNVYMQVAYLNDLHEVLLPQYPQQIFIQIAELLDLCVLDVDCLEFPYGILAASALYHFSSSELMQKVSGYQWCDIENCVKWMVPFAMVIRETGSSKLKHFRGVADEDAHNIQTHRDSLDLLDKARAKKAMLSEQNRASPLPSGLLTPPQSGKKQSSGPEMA
Procedure, shortened: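 Degradation readout: lytic Nano-Glo HiBiT luminescence after 6 h exposure of HEK293-CCNE1-HiBiT cells to 10-point, 3-fold serial dilutions. Signal was scaled between medium-only and DMSO-treated wells, and DC50 came from curve fits.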

CDK9 = molecular target: T3, CDK9 (Homo sapiens, UniProt P50750); experiment: HiBit Assay Protocol for CDK9 (HIBIT protein quantification, degradation); details: HEK293-CDK9-Hibit cells, compound treatment for 6 hours, read-out: CDK9 HIBIT Protein Quantification Maximum
T3 construct: host or cells: HEK293-CDK9-Hibit
T3 sequence (P50750 whole entry): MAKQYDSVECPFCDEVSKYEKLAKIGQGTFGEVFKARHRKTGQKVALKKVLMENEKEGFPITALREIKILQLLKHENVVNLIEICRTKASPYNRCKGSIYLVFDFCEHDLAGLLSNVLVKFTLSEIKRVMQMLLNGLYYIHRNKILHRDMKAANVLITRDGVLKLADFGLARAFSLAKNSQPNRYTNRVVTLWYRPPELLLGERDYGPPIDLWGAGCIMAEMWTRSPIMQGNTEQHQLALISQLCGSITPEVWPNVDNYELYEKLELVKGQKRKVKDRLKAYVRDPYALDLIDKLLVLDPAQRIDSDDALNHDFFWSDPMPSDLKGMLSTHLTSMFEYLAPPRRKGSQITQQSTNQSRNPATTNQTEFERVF
Procedure, shortened: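 Degradation read-out: luminescence after lytic HiBiT/LgBiT detection in HEK293-CDK9-HiBiT cells exposed 6 h to 10-point, 3-fold compound dilutions. Signal scaled between 0.1% DMSO-treated cells and medium alone; DC50 fitted from the curve.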

CDK2 HIBIT Protein Quantification Maximum (CDK2)	DC50 (CDK2)	CCNE1 HIBIT Protein Quantification Maximum (CCNE1)	Dmax (CDK9; 6 h)	SMILES	Dmax (CDK9)
70%	3.77 nM	32%	15%	Cc1cc(CN2CCC(c3ccc4c(N5CCC(=O)NC5=O)nn(C)c4c3)CC2)cc(S(=O)(=O)N2CCC(Nc3ncc4c(n3)N([C@@H]3CCC[C@@H](O)C3)C(=O)C43CC3)CC2)c1 [Compound 167, 1-[6-(1-{[3-(4-{7′-[(1R,3R)-3-Hydroxycyclohexyl]-6′-oxospiro[cyclopropane-1,5′-pyrrolo[2,3-d]pyrimidin]-2′-ylamino}piperidin-1-ylsulfonyl)-5-methylphenyl]methyl}piperidin-4-yl)-1-methylindazol-3-yl]-1,3-diazinane-2,4-dione]	
84%	5.85 nM	47%	10%	Cn1nc(N2CCC(=O)NC2=O)c2ccc(C3CCN(Cc4cc(S(=O)(=O)N5CCC(Nc6ncc7c(n6)N([C@@H]6CCC[C@@H](O)C6)C(=O)C76CC6)CC5)ccc4F)CC3)cc21 [Compound 169, 1-[6-(1-{[2-Fluoro-5-(4-{7′-[(1R,3R)-3-hydroxycyclohexyl]-6′-oxospiro[cyclopropane-1,5′-pyrrolo[2,3-d]pyrimidin]-2′-ylamino}piperidin-1-ylsulfonyl)phenyl]methyl}piperidin-4-yl)-1-methylindazol-3-yl]-1,3-diazinane-2,4-dione]	
55%	4.43 nM	29%	15%	Cn1nc(N2CCC(=O)NC2=O)c2ccc(C3CCN(Cc4ccc(F)c(S(=O)(=O)N5CCC(Nc6ncc7c(n6)N([C@@H]6CCC[C@@H](O)C6)C(=O)C76CC6)CC5)c4)CC3)cc21 [Compound 171]	
74%	4.05 nM	49%	17%	Cn1nc(N2CCC(=O)NC2=O)c2ccc(C3CCN(Cc4cccc(S(=O)(=O)N5CCC(Nc6ncc7c(n6)N([C@@H]6CCC[C@@H](O)C6)C(=O)C76CC6)CC5)c4F)CC3)cc21 [Compound 172]	
78%	4.19 nM	44%	8%	Cn1nc(N2CCC(=O)NC2=O)c2ccc(C3CCN(Cc4cccc(S(=O)(=O)N5CCC(Nc6ncc7c(n6)N([C@@H]6CCC[C@@H](O)C6)C(=O)C76CC6)CC5)c4)CC3)c(F)c21 [Compound 175, 1-[7-fluoro-6-(1-{[3-(4-{7′-[(1R,3R)-3-Hydroxycyclohexyl]-6′-oxospiro[cyclopropane-1,5′-pyrrolo[2,3-d]pyrimidin]-2′-ylamino}piperidin-1-ylsulfonyl)phenyl]methyl}piperidin-4-yl)-1-methylindazol-3-yl]-1,3-diazinane-2,4-dione]	
79%	3.34 nM	45%	20%	Cn1nc(N2CCC(=O)NC2=O)c2cc(F)c(C3CCN(Cc4cccc(S(=O)(=O)N5CCC(Nc6ncc7c(n6)N([C@@H]6CCC[C@@H](O)C6)C(=O)C76CC6)CC5)c4)CC3)cc21 [Compound 176, 1-[5-Fluoro-6-(1-{[3-(4-{7′-[(1R,3R)-3-hydroxycyclohexyl]-6′-oxospiro[cyclopropane-1,5′-pyrrolo[2,3-d]pyrimidin]-2′-ylamino}piperidin-1-ylsulfonyl)phenyl]methyl}piperidin-4-yl)-1-methylindazol-3-yl]-1,3-diazinane-2,4-dione]	
81%	6.51 nM	41%	14%	Cn1nc(N2CCC(=O)NC2=O)c2ccc(C3CCN(Cc4cccc(S(=O)(=O)N5CCC(Nc6ncc7c(n6)N([C@@H]6CCC[C@@H](O)C6)C(=O)C76CC6)CC5)c4)CC3(F)F)cc21 (stereo partly drawn) [Compound 177, 1-[6-(3,3-difluoro-1-{[3-(4-{7′-[(1R,3R)-3-hydroxycyclohexyl]-6′-oxospiro[cyclopropane-1,5′-pyrrolo[2,3-d]pyrimidin]-2′-ylamino}piperidin-1-ylsulfonyl)phenyl]methyl}piperidin-4-yl)-1-methylindazol-3-yl]-1,3-diazinane-2,4-dione]	
85%	7.18 nM	48%	34%	Cn1nc(N2CCC(=O)NC2=O)c2ccc(C3CCN(Cc4cccc(S(=O)(=O)N5CCC(Nc6ncc7c(n6)N([C@@H]6CCC[C@@H](O)C6)C(=O)C76CC6)CC5)c4)CC3F)cc21 (stereo partly drawn) [Compound 180, 1-[6-(3-Fluoro-1-{[3-(4-{7′-[(1R,3R)-3-hydroxycyclohexyl]-6′-oxospiro[cyclopropane-1,5′-pyrrolo[2,3-d]pyrimidin]-2′-ylamino}piperidin-1-ylsulfonyl)phenyl]methyl}piperidin-4-yl)-1-methylindazol-3-yl]-1,3-diazinane-2,4-dione]	

More lines, now with the values behind:

SMILES	CDK2 HIBIT Protein Quantification Maximum (CDK2)	DC50 (CDK2)	CCNE1 HIBIT Protein Quantification Maximum (CCNE1)	Dmax (CDK9; 6 h)	Dmax (CDK9)
Cc1ccc(S(=O)(=O)N2CCC(Nc3ncc4c(n3)N([C@@H]3CCC[C@@H](O)C3)C(=O)C43CC3)CC2)cc1CN1CCC(c2ccc3c(N4CCC(=O)NC4=O)nn(C)c3c2)CC1 [Compound 168]	71%	2.91 nM	40%	26%	
Cn1nc(N2CCC(=O)NC2=O)c2ccc(C3CCN(Cc4cc(F)cc(S(=O)(=O)N5CCC(Nc6ncc7c(n6)N([C@@H]6CCC[C@@H](O)C6)C(=O)C76CC6)CC5)c4)CC3)cc21 [Compound 170, 1-[6-(1-{[3-Fluoro-5-(4-{7′-[(1R,3R)-3-hydroxycyclohexyl]-6′-oxospiro[cyclopropane-1,5′-pyrrolo[2,3-d]pyrimidin]-2′-ylamino}piperidin-1-ylsulfonyl)phenyl]methyl}piperidin-4-yl)-1-methylindazol-3-yl]-1,3-diazinane-2,4-dione]	75%	3.63 nM	46%		5%
Cn1nc(N2CCC(=O)NC2=O)c2ccc(C3CCN(Cc4cccc(S(=O)(=O)N5CCC(Nc6ncc7c(n6)N([C@H]6CCC[C@]6(C)O)C(=O)C76CC6)CC5)c4)CC3)cc21 [Compound 178]	75%	1.8 nM	38%	23%	
Cn1c(=O)n(C2CCC(=O)NC2=O)c2ccc(N3CCN(Cc4cccc(S(=O)(=O)N5CCC(Nc6ncc7c(n6)N([C@@H]6CCC[C@@H](O)C6)C(=O)C76CC6)CC5)c4)CC3)cc21 (stereo partly drawn) [Compound 179, 3-[5-(4-{[3-(4-{7′-[(1R,3R)-3-Hydroxycyclohexyl]-6′-oxospiro[cyclopropane-1,5′-pyrrolo[2,3-d]pyrimidin]-2′-ylamino}piperidin-1-ylsulfonyl)phenyl]methyl}piperazin-1-yl)-3-methyl-2-oxo-1,3-benzodiazol-1-yl]piperidine-2,6-dione]	78%	7.82 nM	20%	15%	
Cn1c(=O)n(C2CCC(=O)NC2=O)c2cccc(N3CCN(Cc4cccc(S(=O)(=O)N5CCC(Nc6ncc7c(n6)N([C@@H]6CCC[C@@H](O)C6)C(=O)C76CC6)CC5)c4)CC3)c21 (stereo partly drawn) [Compound 181, 3-[4-(4-{[3-(4-{7′-[(1R,3R)-3-hydroxycyclohexyl]-6′-oxospiro[cyclopropane-1,5′-pyrrolo[2,3-d]pyrimidin]-2′-ylamino}piperidin-1-ylsulfonyl)phenyl]methyl}piperazin-1-yl)-3-methyl-2-oxo-1,3-benzodiazol-1-yl]piperidine-2,6-dione]	77%	6.02 nM	38%	11%	
Cn1nc(N2CCC(=O)NC2=O)c2ccc(C3CCN(Cc4cccc(S(=O)(=O)N5CCC(Nc6ncc7c(n6)N([C@@H]6CCC[C@@H](O)C6)C(=O)C76CC6)CC5)c4)C(C)(C)C3)cc21 (stereo partly drawn) [Compound 183, 1-[6-(1-{[3-(4-{7′-[(1R,3R)-3-Hydroxycyclohexyl]-6′-oxospiro[cyclopropane-1,5′-pyrrolo[2,3-d]pyrimidin]-2′-ylamino}piperidin-1-ylsulfonyl)phenyl]methyl}-2,2-dimethylpiperidin-4-yl)-1-methylindazol-3-yl]-1,3-diazinane-2,4-dione]	67%	2.84 nM	43%	24%	
Cn1nc(N2CCC(=O)NC2=O)c2ccc(N3CCN(Cc4cccc(S(=O)(=O)N5CCC(Nc6ncc7c(n6)N([C@@H]6CCC[C@@H](O)C6)C(=O)C76CC6)CC5)c4)CC3)cc21 [Compound 184]	90%	5.47 nM	43%	22%	
CC1CN(Cc2cccc(S(=O)(=O)N3CCC(Nc4ncc5c(n4)N([C@@H]4CCC[C@@H](O)C4)C(=O)C54CC4)CC3)c2)CCN1c1ccc2c(N3CCC(=O)NC3=O)nn(C)c2c1 (stereo partly shown) [Compound 185]	84%	6.77 nM	36%	5%	
